Holding throughout (experiment): NCI tumour cell line growth inhibition, 48 h
Assay [1] concerns HCC 2998.
For assay [2], the system named is DU-145.
In assay [3] the test system is MDA-N.
Assay [4] deals with OVCAR-3.
Assay [5] deals with A549.
Assay [6] deals with NCI-H226.
In assay [7] the test system is NCI-H23.
For assay [8], the system named is MCF7.
The test system of assay [9] is SN12C.
In assay [10] the test system is LOX IMVI.
Assay [11] has as its system Hs-578T.
Assay [12] relates to HCT-15.
Assay [13] relates to HOP-62.
In assay [14] the test system is K562.
The test system of assay [15] is SF-268.
Assay [16] relates to A498.
Assay [17] relates to OVCAR-8.
Assay [18] relates to MOLT-4.
The test system of assay [19] is SK-MEL-28.

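Five concentrations, 48 hours, 96-well plates. The concentration for 50% growth inhibition is given as GI50.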 Active and inactive are the calls of the source. Cut-off read from the data, not from the text of the source: active = GI50 up to about 1.1 µM and inactive = higher. A value given as a limit tells only on which side of the number the result lay.

Consider `COc1ccc(-c2cc3ccccc3oc2=O)cc1OC`, for which the GI50 in assay [1] was > 10 µM (inactive); in assay [2] it was > 100 µM (inactive); in assay [3], > 100 µM (inactive); in assay [4], > 100 µM (inactive); in [5], > 100 µM (inactive); in assay [6], > 100 µM (inactive). Besides, the GI50 in [7] is > 100 µM (inactive); in assay [8] it was > 100 µM (inactive); in [9], > 100 µM (inactive); in assay [10], > 100 µM (inactive); in assay [11], > 100 µM (inactive); in assay [12], over 100 µM. Further, the GI50 in [13], in assay [14], in assay [15], in assay [16], in assay [17] and in assay [18] was > 100 µM (inactive) each time.
`CC1CCN(CC(=O)N2c3ccccc3Sc3cc4ccccc4cc32)CC1`: the GI50 was 67.6 µM (inactive) in assay [1]; > 100 µM (inactive) in [2]; > 100 µM (inactive) in assay [3]; > 100 µM (inactive) in assay [4]; > 100 µM (inactive) in assay [5]; > 100 µM (inactive) in [6]. The GI50 in assay [19] is > 100 µM (inactive); in assay [7], > 100 µM (inactive); in assay [8], 47.5 µM (inactive); in [9], 38.7 µM (inactive); in assay [10] it was > 100 µM (inactive); in assay [11], > 100 µM (inactive). Moreover, the GI50 in [12] was over 100 µM; in assay [13], > 100 µM (inactive); in [14], > 100 µM (inactive); in [15], > 100 µM (inactive); in assay [16] it was > 100 µM (inactive); in [17], > 100 µM (inactive). Further, the GI50 in assay [18] is 36.4 µM (inactive).
On to `CCCNC(=S)N/N=C1\C(=O)Nc2ccccc21`, for which the GI50 in assay [1], in [2], in assay [3], in assay [4], in [5] and in assay [6] was > 100 µM (inactive) in each case. Moreover, the GI50 in assay [19], in assay [7], in assay [8], in assay [9], in assay [10] and in assay [11] was > 100 µM (inactive) throughout. Further, the GI50 in [12] was over 100 µM; in assay [13], > 100 µM (inactive); in assay [14] it was > 100 µM (inactive); in assay [15], > 100 µM (inactive); in assay [16], > 100 µM (inactive); in [17], > 100 µM (inactive). Also, in assay [18], the GI50 is > 100 µM (inactive).
On to `O=C1c2ccccc2C(=O)c2c(NC(=O)C(Cl)CCl)cccc21` (configuration not stated), for which the GI50 in assay [1] was 13.6 µM (inactive); in assay [2], 7.38 µM (inactive); in assay [3], 10.4 µM (inactive); in assay [4], 11 µM (inactive); in assay [5] it was 20.4 µM (inactive); in assay [6], 17.5 µM (inactive). The GI50 was 17.2 µM (inactive) in [19]; 4.03 µM (inactive) in assay [7]; 0.785 µM (active) in assay [8]; 7.67 µM (inactive) in assay [9]; 2.44 µM (inactive) in assay [10]; 31.3 µM (inactive) in [11]. In addition, the GI50 is 6.65 µM in assay [12]; 10.5 µM (inactive) in assay [13]; 0.197 µM (active) in assay [14]; 5.7 µM (inactive) in [15]; 19.2 µM (inactive) in assay [16]; 5.56 µM (inactive) in [17]. In addition, the GI50 in assay [18] is < 0.0353 µM (active).
On to `Cc1ccsc1/C=N/Nc1cc(C)c2ccccc2n1`, for which the GI50 was 14 µM (inactive) in [1]; 12.6 µM (inactive) in [2]; 14.5 µM (inactive) in assay [3]; 3.94 µM (inactive) in assay [4]; 9.55 µM (inactive) in [5]; 16 µM (inactive) in [6]. Further, the GI50 in assay [19] was 14.6 µM (inactive); in [7], 11.2 µM (inactive); in assay [8], 15.6 µM (inactive); in [9] it was 15.2 µM (inactive); in assay [10], 12 µM (inactive); in assay [11], 16.7 µM (inactive). Moreover, the GI50 in assay [12] is 11.4 µM; in assay [13] it was 22.3 µM (inactive); in assay [14], 9.06 µM (inactive); in assay [15] it was 17.6 µM (inactive); in [16], 10.4 µM (inactive); in [17], 14.7 µM (inactive). In addition, the GI50 in assay [18] is 9.23 µM (inactive).
Turning to `Nc1nnc2n1C(=O)C(C1(C3=Nc4nnc(N)n4C3=O)Cc3ccccc3C1=O)=N2`, the GI50 in [1] was > 100 µM (inactive); in assay [2], > 100 µM (inactive); in [3], > 100 µM (inactive); in assay [4], > 100 µM (inactive); in assay [5], 43.5 µM (inactive); in assay [6] it was > 100 µM (inactive). Also, the GI50 in [19] was > 100 µM (inactive); in [7], > 100 µM (inactive); in assay [8], 40.7 µM (inactive); in [9], > 100 µM (inactive); in assay [10] it was 87.5 µM (inactive); in assay [11], > 100 µM (inactive). Also, the GI50 in assay [12] is over 100 µM; in [13] it was > 100 µM (inactive); in assay [14] it was 94 µM (inactive); in [15] it was > 100 µM (inactive); in [16], 0.0205 µM (active); in assay [17], > 100 µM (inactive). The GI50 in assay [18] was > 100 µM (inactive).
As to `c1ccc2c(c1)[C@@H]1O[C@@H]1[C@@]13O[C@@]21[C@H]1O[C@H]1c1ccccc13`, the GI50 in assay [1] was 16.6 µM (inactive); in assay [2], 15.3 µM (inactive); in assay [3] it was 15.6 µM (inactive); in [4] it was 16.5 µM (inactive); in [5], 15.7 µM (inactive); in [6], 15.3 µM (inactive). The GI50 in assay [19] was 16.9 µM (inactive); in assay [7] it was 14 µM (inactive); in assay [8], 10.1 µM (inactive); in assay [9], 17.7 µM (inactive); in assay [10] it was 10.2 µM (inactive); in assay [11], 13 µM (inactive). Moreover, the GI50 in assay [12] is 19.5 µM; in assay [13], 15.5 µM (inactive); in assay [14] it was 13.6 µM (inactive); in assay [15], 13.7 µM (inactive); in assay [16], 15.7 µM (inactive); in [17], 15.6 µM (inactive). For the same compound, the GI50 in assay [18] is 10.6 µM (inactive).
Regarding `CCN(C(=O)/C=C/c1ccco1)c1ccccc1`, the GI50 in assay [1], in assay [2], in assay [3], in assay [4], in assay [5] and in assay [6] was > 100 µM (inactive) throughout. Also, the GI50 in [19], in [7], in assay [8], in assay [9], in assay [10] and in [11] was > 100 µM (inactive) throughout. The GI50 is over 100 µM in assay [12]; > 100 µM (inactive) in assay [13]; 46.2 µM (inactive) in assay [14]; > 100 µM (inactive) in assay [15]; > 100 µM (inactive) in assay [16]; > 100 µM (inactive) in assay [17]. Further, the GI50 in assay [18] is 53.8 µM (inactive).
On to `c1ccc(/N=C2\c3ccsc3/C(=N/c3ccccc3)c3ccsc32)cc1`, for which the GI50 in assay [1] was 3.94 µM (inactive); in assay [2], 1.73 µM (inactive); in assay [3] it was 0.244 µM (active); in [4] it was 1.92 µM (inactive); in [5] it was 2.03 µM (inactive); in [6] it was 5.57 µM (inactive). The GI50 is 2.01 µM (inactive) in assay [19]; 0.914 µM (active) in [7]; 2.62 µM (inactive) in assay [8]; 1.58 µM (inactive) in assay [9]; 0.458 µM (active) in assay [10]; 2.24 µM (inactive) in assay [11]. Further, the GI50 was 2.04 µM in assay [12]; 1.63 µM (inactive) in [13]; 1.83 µM (inactive) in [14]; 2.4 µM (inactive) in [15]; 8.11 µM (inactive) in assay [16]; 2.11 µM (inactive) in [17]. Further, the GI50 in [18] was 1.9 µM (inactive).
For the compound `C=C1C(=O)O[C@@H]2CC(CO)=C([C@@H](C)CCCO)[C@@H](OC(=O)/C(C)=C\C)[C@H]12`, the GI50 in assay [1] was 15.3 µM (inactive); in assay [2] it was 8.71 µM (inactive); in [3], 15.1 µM (inactive); in assay [4], 7.64 µM (inactive); in assay [5], 21.6 µM (inactive); in assay [6], 28.4 µM (inactive). Also, the GI50 is 12 µM (inactive) in [19]; 13.3 µM (inactive) in assay [7]; 10.2 µM (inactive) in assay [8]; 16.2 µM (inactive) in assay [9]; 8.39 µM (inactive) in [10]; 21.1 µM (inactive) in assay [11]. Moreover, the GI50 was 13.7 µM in assay [12]; 34.9 µM (inactive) in assay [13]; 5.22 µM (inactive) in assay [14]; 15.6 µM (inactive) in assay [15]; 27.8 µM (inactive) in [16]; 20.6 µM (inactive) in [17]. Also, the GI50 in assay [18] was 10.8 µM (inactive).
Regarding `Nc1[nH]c(Nc2ccc(Cl)c(Cl)c2)nc2ncnc1-2`, the GI50 in [1] was 14.4 µM (inactive); in [2], 7.41 µM (inactive); in assay [3], 17.5 µM (inactive); in [4], 11.7 µM (inactive); in assay [5], 13.9 µM (inactive); in assay [6], 20.6 µM (inactive). Also, the GI50 in assay [7] was 18.3 µM (inactive); in assay [8], 14.6 µM (inactive); in [9], 23.6 µM (inactive); in assay [10], 14.8 µM (inactive); in assay [11], 5.87 µM (inactive); in [12], 15.3 µM. The GI50 was 12.9 µM (inactive) in assay [13]; 16.1 µM (inactive) in assay [14]; 11 µM (inactive) in assay [15]; 6.87 µM (inactive) in assay [16]; 14.7 µM (inactive) in assay [17]; 11.7 µM (inactive) in assay [18].
